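Five compound concentrations were applied to cells in 96-well plates for 48 hours; endpoints were derived by simple linear interpolation of the resulting dose-response curve. At the GI50, growth is halved. TGI is the concentration that stops growth completely.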

Test systems include HOP-92 NSCLC; SF-539 CNS; CAKI-1 renal; SNB-19 CNS; UACC-257 melanoma; BT-549 breast; SF-295 CNS; PC-3 prostate; HT29 colon; HS 578T breast.
Holding throughout (experiment): NCI anticancer screen, dose series, 48 h

In the case of `CCC[CH2][Sn]1([CH2]CCC)[O]C(=O)c2ccc(N)cc2[O]1`, the GI50 with HOP-92 NSCLC was 0.149 µM; with SF-539 CNS it was 0.691 µM; with CAKI-1 renal, 0.119 µM; in the assay on SNB-19 CNS, 0.734 µM; with UACC-257 melanoma it was 0.548 µM; with BT-549 breast it was 0.15 µM. The GI50 is 1.41 µM in the assay on SF-295 CNS, 0.985 µM in the assay on PC-3 prostate and 1.33 µM in the assay on HT29 colon. The TGI came to 0.988 µM in the assay on HOP-92 NSCLC; 1.94 µM with SF-539 CNS; 1.27 µM in the assay with CAKI-1 renal; 2.17 µM in the assay on SNB-19 CNS; 2.11 µM in the assay on UACC-257 melanoma; 0.985 µM in the assay on BT-549 breast. Besides, the TGI in the assay on SF-295 CNS worked out at 2.76 µM; with PC-3 prostate, 2.23 µM; with HT29 colon, 2.73 µM.
As for `CNCCNc1nc2ccccc2c2c(=O)c3cc(F)ccc3sc12`, the GI50 is 1.73 µM in the assay with HOP-92 NSCLC; 2 µM in the assay on HS 578T breast; 1.71 µM with SF-539 CNS; 1.38 µM with CAKI-1 renal; 1.73 µM in the assay with UACC-257 melanoma; 3.59 µM in the assay on BT-549 breast. The figures for the GI50 with SF-295 CNS, with PC-3 prostate and in the assay with HT29 colon were 1.82 µM, 1.52 µM and 1.59 µM, respectively. The TGI in the assay on HOP-92 NSCLC was determined as 7.42 µM; in the assay with HS 578T breast it was 4.79 µM; in the assay on SF-539 CNS it was 3.13 µM; in the assay with CAKI-1 renal it was 2.77 µM; in the assay with UACC-257 melanoma, 3.25 µM; in the assay on BT-549 breast it was 14.9 µM. The TGI worked out at 3.4 µM with SF-295 CNS, 3.3 µM in the assay with PC-3 prostate and 3.2 µM in the assay on HT29 colon.
In the case of `CC(=O)c1cccc(-c2cccc(-c3ccn(CCN4CCOCC4)n3)c2)c1`, the GI50 is 16.2 µM in the assay on HOP-92 NSCLC; > 20 µM with HS 578T breast; > 20 µM with SF-539 CNS; > 20 µM with CAKI-1 renal; > 20 µM in the assay with UACC-257 melanoma; > 20 µM with BT-549 breast. The GI50 with PC-3 prostate and in the assay with HT29 colon was > 20 µM in each case. In addition, the TGI with HOP-92 NSCLC, in the assay with HS 578T breast, in the assay on SF-539 CNS, with CAKI-1 renal, in the assay with UACC-257 melanoma and in the assay with BT-549 breast was > 20 µM each time. The TGI in the assay with PC-3 prostate and in the assay with HT29 colon was > 20 µM each time.
With `C[C@]12CC[C@H]3[C@@H](CC[C@]4(O)C[C@@H](O)CC[C@]34CO)[C@@]1(O)CC[C@@H]2C1=CC(=O)OC1`, the TGI in the assay on HOP-92 NSCLC is 18.9 µM; with HS 578T breast it was > 100 µM; with SF-539 CNS, 2.41 µM; with SNB-19 CNS, 23.6 µM; in the assay on UACC-257 melanoma, 12.7 µM; in the assay on BT-549 breast, 3.68 µM. Besides, the TGI turned out to be 5.27 µM with SF-295 CNS, 10.5 µM in the assay with PC-3 prostate and 7.81 µM with HT29 colon.
Consider `O=C(N/N=C/c1ccc(Cl)cc1)c1[nH]c2ccc(Cl)cc2c1-c1ccccc1`, for which the GI50 was 0.424 µM in the assay on HOP-92 NSCLC; 0.0947 µM in the assay with SF-539 CNS; 0.185 µM with CAKI-1 renal; 0.504 µM in the assay with SNB-19 CNS; 7.42 µM in the assay on UACC-257 melanoma; 0.146 µM in the assay on BT-549 breast. For the same compound, the figures for the GI50 in the assay with SF-295 CNS, in the assay with PC-3 prostate and in the assay on HT29 colon were 0.0815 µM, 0.2 µM and 0.122 µM, respectively. Further, the TGI in the assay with HOP-92 NSCLC is 41.5 µM; with SF-539 CNS, 0.267 µM; in the assay with CAKI-1 renal, 0.645 µM; with SNB-19 CNS, > 56.1 µM; in the assay with UACC-257 melanoma, > 100 µM; with BT-549 breast, 3.58 µM. The TGI is 2.58 µM with SF-295 CNS, 44.8 µM in the assay on PC-3 prostate and > 36 µM in the assay on HT29 colon.
Regarding `CNCCNc1nc2ccccc2c2c(=O)c3cc(OC)ccc3sc12`, the GI50 in the assay with HOP-92 NSCLC was 1.29 µM; in the assay on HS 578T breast it was 1.84 µM; in the assay on SF-539 CNS, 1.66 µM; with CAKI-1 renal, 1.5 µM; in the assay with UACC-257 melanoma, 1.89 µM; with BT-549 breast it was 1.59 µM. Besides, the GI50 is 1.82 µM in the assay with SF-295 CNS, 1.47 µM with PC-3 prostate and 1.52 µM with HT29 colon. Also, the TGI worked out at 3.32 µM with HOP-92 NSCLC; 4.33 µM in the assay with HS 578T breast; 3.03 µM in the assay with SF-539 CNS; 2.97 µM in the assay on CAKI-1 renal; 3.75 µM with UACC-257 melanoma; 3.11 µM in the assay with BT-549 breast. Besides, the TGI amounted to 3.36 µM in the assay on SF-295 CNS, 2.94 µM in the assay on PC-3 prostate and 3.26 µM in the assay on HT29 colon.
`CCCCN(CCCC)CCc1c(C)cc(C)c(CCN(CCCC)CCCC)c1O`: the GI50 is 2.7 µM in the assay on HS 578T breast; 3.51 µM in the assay on SF-539 CNS; 2.17 µM in the assay on CAKI-1 renal; 3.04 µM with SNB-19 CNS; 2.37 µM in the assay on UACC-257 melanoma; 2.78 µM with BT-549 breast. Besides, the GI50 was 2.2 µM with SF-295 CNS and 2.52 µM with HT29 colon. Also, the TGI in the assay on HS 578T breast is 8.59 µM; in the assay with SF-539 CNS, 28.2 µM; in the assay with CAKI-1 renal, 7.35 µM; in the assay with SNB-19 CNS it was > 100 µM; in the assay with UACC-257 melanoma it was 7.44 µM; in the assay with BT-549 breast it was 6.87 µM. Moreover, the TGI in the assay on SF-295 CNS amounted to 6.97 µM; in the assay on HT29 colon, 13 µM.
Consider `C/C=C(/C)c1cnc(CC(C)C)c(=O)[nH]1`, for which the TGI in the assay on HOP-92 NSCLC, in the assay on HS 578T breast, in the assay with CAKI-1 renal, in the assay on SNB-19 CNS, with UACC-257 melanoma and in the assay on BT-549 breast was > 100 µM each time. Also, the TGI in the assay on SF-295 CNS, in the assay on PC-3 prostate and in the assay with HT29 colon was > 100 µM throughout.
As to `Clc1ccc2c(c1)C(N1CCNCC1)=Nc1ccccc1O2`, the GI50 was 0.374 µM in the assay on HOP-92 NSCLC; 1.75 µM with SF-539 CNS; 2.2 µM with CAKI-1 renal; 2.97 µM in the assay with SNB-19 CNS; 1.5 µM in the assay on UACC-257 melanoma; 2.42 µM in the assay on BT-549 breast. Also, the figures for the GI50 in the assay on SF-295 CNS, in the assay with PC-3 prostate and in the assay with HT29 colon were 1.92 µM, 1.54 µM and 1.72 µM, respectively. Moreover, the TGI in the assay on HOP-92 NSCLC was determined as 2.8 µM; in the assay with SF-539 CNS, 3.36 µM; with CAKI-1 renal, 7.83 µM; with SNB-19 CNS, 12.8 µM; in the assay with UACC-257 melanoma, 2.87 µM; in the assay on BT-549 breast it was 10.2 µM. The TGI worked out at 3.82 µM in the assay with SF-295 CNS, 8.74 µM in the assay with PC-3 prostate and 4.19 µM in the assay with HT29 colon.

Values taken from PubChem BioAssay (NCI).
